In data set [1] the test system is T. cruzi (Tulahuen strain). As to the kind of experiment: microbe, parasite or virus in culture. It is filed as cell-based, Trypanosoma cruzi. To be noted: for EC50: read-out: T. cruzi EC50; for activity at 10 µM: read-out: T. cruzi % growth @ 10 uM (Amastigotes). In outline:
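Tulahuen parasites expressing beta-galactosidase were added (1×10^4 trypomastigotes/well) to 3T3 fibroblasts plated 24 h earlier, 4 h before compound (10 µM final).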

Data set [2] concerns 3T3 fibroblast cells. Put plainly: in vitro. It is filed as cell-based, murine. To be noted: for activity at 10 µM: Mus musculus, NIH3T3, 72 h, read-out: Mammalian (3T3) cell % growth at 10 uM.
The mark [3] stands for this setting: Trypanosoma cruzi, TULAHUEN, Fibroblast, 120 h, 10 uM, Table S2.
Where [4] appears, read: Trypanosoma cruzi, TULAHUEN, Fibroblast, Table S2, amastigotes.
[5] abbreviates: Trypanosoma cruzi, TULAHUEN, Fibroblast, 120 h, 10 uM, Table S1.
Where [6] appears, read: Trypanosoma cruzi, TULAHUEN, Fibroblast.

SMILES strings stand for the structures. Counter-ions that a name gives are not always drawn. Like-named read-outs stand apart in the source and are kept apart here.

For the compound `C=CCN(C)CCCCCCOc1ccc(C(=O)c2ccc(Br)cc2)c(F)c1` [Ro 48-8071], in data set [1] (intracellular amastigotes, 5 days, separate assays separated by semicolons), the EC50 turned out to be 410 nM. Further, in data set [2] (3T3 fibroblasts, 72 hours, separate assays separated by semicolons, read-out: Mammalian cell CC50), the CC50 turned out to be 7.4 µM.
For the compound `Cc1cccc2c3c(ccc12)C1=C(C(=O)C3=O)C(C)CO1` (stereo not drawn) [DIHYDROTANSHINONE I, 6,14-dimethyl-12-oxatetracyclo[8.7.0.0^{2,7}.0^{11,15}]heptadeca-1(10),2(7),3,5,8,11(15)-hexaene-16,17-dione], the activity at 10 µM in data set [1] (setting [3]) was determined as 4.8%; in data set [2] (10 uM, Table S2), 77.1%.
For `CC(C)c1c(O)ccc2c1CCC1C(C)(C)CCCC21C` (stereo not drawn) [TOTAROL, 4b,8,8-trimethyl-1-(propan-2-yl)-4b,5,6,7,8,8a,9,10-octahydrophenanthren-2-ol], the activity at 10 µM in data set [1] (setting [3]) worked out at 21.3%; in data set [2] (10 uM, Table S2), 67.4%.
Taken in the same sequence, the figures for `CN1CCC(=C2c3ccccc3CCc3sccc32)CC1` [PIZOTYLINE MALATE, 1-methyl-4-{6-thiatricyclo[8.4.0.0^{3,7}]tetradeca-1(14),3(7),4,10,12-pentaen-2-ylidene}piperidine; 2-hydroxybutanedioic acid] were 21.4% and 86.5%.
`C#C[C@]1(O)CC[C@H]2[C@@H]3CCC4=Cc5oncc5C[C@]4(C)[C@H]3CC[C@@]21C` [DANAZOL, (1S,2R,13R,14S,17R,18S)-17-ethynyl-2,18-dimethyl-7-oxa-6-azapentacyclo[11.7.0.0^{2,10}.0^{4,8}.0^{14,18}]icosa-4(8),5,9-trien-17-ol]: the activity at 10 µM in data set [1] (setting [3]) turned out to be 0.9%; in data set [2] (10 uM, Table S2), 90.2%. In addition, the EC50 in data set [1] (setting [4]) is 6970 nM.
With `CC(=O)O[C@H]1CC[C@]2(C)C(C[C@H](OC(C)=O)[C@]3(C)C4=CC(=O)OC(c5ccoc5)[C@@]4(C)CCC23)C1(C)C` (stereo partly drawn) [3beta,7beta-[…]], the activity at 10 µM in data set [1] (setting [3]) was 2.5%; in data set [2] (10 uM, Table S2) it was 72.2%.
Consider `CCOC(=O)C(CCc1ccccc1)NC1CCc2ccccc2N(CC(=O)O)C1=O` (stereo not drawn) [BENAZEPRIL HYDROCHLORIDE, 2-{3-[(1-ethoxy-1-oxo-4-phenylbutan-2-yl)amino]-2-oxo-2,3,4,5-tetrahydro-1H-1-benzazepin-1-yl}acetic acid hydrochloride], for which the activity at 10 µM worked out at 1% in data set [1] (setting [3]) and 66.8% in data set [2] (10 uM, Table S2).
`CN1CCC(=C2c3ccccc3Sc3ccccc32)CC1` [PIMETHIXENE, 1-methyl-4-(9H-thioxanthen-9-ylidene)piperidine]: the activity at 10 µM in data set [1] (setting [3]) is 3.9%; in data set [2] (10 uM, Table S2), 98.5%.
Take `C=C1C(=O)OC2CC1C(OC(C)=O)CC(C)=CCCC(C)=CCCC2(C)O` (stereo not drawn) [CRASSIN ACETATE, 12-hydroxy-4,8,12-trimethyl-16-methylidene-15-oxo-14-oxabicyclo[11.3.1]heptadeca-4,8-dien-2-yl acetate]: the activity at 10 µM was determined as 0.2% in data set [1] (setting [5]) and 2.5% in data set [2] (10 uM, Table S1).
Regarding `COc1ccc(-c2oc3ccccc3c(=O)c2O)cc1OC` [3-HYDROXY-3',4'-DIMETHOXYFLAVONE], the activity at 10 µM in data set [1] (setting [3]) stood at 5.2%; in data set [2] (10 uM, Table S2) it was 99.2%.
Taken in the same sequence, the figures for `Cc1[nH]c2ccccc2c1CN(C)C` [2-METHYL GRAMINE] were 20.8% and 86.9%.
Consider `CC1C=CC=CC=CC=CC=CC=CC=CC(OC2OC(C)C(O)C(N)C2O)CC2OC(O)(CC(O)CC(O)C(O)CCC(O)CC(O)CC(=O)OC(C)C(C)C1O)CC(O)C2C(=O)O` (stereo not drawn) [AMPHOTERICIN B, 33-[(4-amino-3,5-dihydroxy-6-methyloxan-2-yl)oxy]-1,3,5,6,9,11,17,37-octahydroxy-15,16,18-trimethyl-13-oxo-14,39-dioxabicyclo[33.3.1]nonatriaconta-19,21,23,25,27,29,31-heptaene-36-carboxylic acid], for which the activity at 10 µM in data set [1] (setting [3]) was 20.6%; in data set [2] (10 uM, Table S2) it was 89.7%. Further, the EC50 in data set [1] (setting [4]) worked out at 0.04 nM; in data set [1] (setting [6]), 40 nM.
For the compound `COc1c(CC(=O)c2cc3c(cc2O)OC(C)(C)C(O)C3)ccc2c1C=CC(C)(C)O2` (stereo not drawn) [DIHYDROMUNDULETONE], the activity at 10 µM in data set [1] (setting [3]) came to 4.4%; in data set [2] (10 uM, Table S2) it was 81.3%.
For `O=c1cc(-c2ccc(O)cc2)oc2cc(O)cc(O)c12` [APIGENIN, 5,7-dihydroxy-2-(4-hydroxyphenyl)-4H-chromen-4-one] the same measures were 17.7% and 73.6%.
For `O=C(CCCN1CCC2(CC1)C(=O)NCN2c1ccccc1)c1ccc(F)cc1` [SPIPERONE, 8-[4-(4-fluorophenyl)-4-oxobutyl]-1-phenyl-1,3,8-triazaspiro[4.5]decan-4-one] the same measures were 17.1% and 94.7%.
For `CN1CCCC(n2nc(Cc3ccc(Cl)cc3)c3ccccc3c2=O)CC1` (stereo not drawn) [AZELASTINE HYDROCHLORIDE, 4-[(4-chlorophenyl)methyl]-2-(1-methylazepan-4-yl)-1,2-dihydrophthalazin-1-one hydrochloride], the activity at 10 µM in data set [1] (setting [3]) was 1.5%; in data set [2] (10 uM, Table S2), 95.1%. Moreover, the EC50 in data set [1] (setting [6]) came out at 2200 nM.
Consider `CCCC(C(=O)OCCN(CC)CC)(c1ccccc1)c1ccccc1` [PROADIFEN, 2-(diethylamino)ethyl 2,2-diphenylpentanoate], for which the activity at 10 µM in data set [1] (setting [3]) came to 2.1%; in data set [2] (10 uM, Table S2) it was 100%.
In the case of `CN1CCc2c(c3ccccc3n2Cc2ccccc2)C1.O=S(=O)(O)c1cccc2c(S(=O)(=O)O)cccc12` [MEBHYDROLIN NAPHTHALENESULFONATE, 5-benzyl-2-methyl-1H,2H,3H,4H,5H-pyrido[4,3-b]indole; naphthalene-1,5-disulfonic acid], the “T. cruzi % growth @ 10 uM (Amastigotes)” value in data set [1] (10 uM, Table S2) was determined as 3.3%. Further, the “Mammalian (3T3) cell % growth at 10 uM” value in data set [2] (10 uM, Table S2) worked out at 100%.
Consider `CC(C)COCC(CN(Cc1ccccc1)c1ccccc1)N1CCCC1` (stereo not drawn) [BEPRIDIL, N-benzyl-N-[3-(2-methylpropoxy)-2-(pyrrolidin-1-yl)propyl]aniline hydrochloride], for which the activity at 10 µM in data set [1] (setting [3]) came out at 24.4%; in data set [2] (10 uM, Table S2) it was 89.6%.
`CCCCC1C(=O)N(c2ccccc2)N(c2ccc(O)cc2)C1=O` (stereo not drawn) [OXYPHENBUTAZONE, 4-butyl-1-(4-hydroxyphenyl)-2-phenylpyrazolidine-3,5-dione]: the activity at 10 µM in data set [1] (setting [3]) is 3.7%; in data set [2] (10 uM, Table S2) it was 72.8%. For the same compound, the EC50 in data set [1] (setting [6]) came to 12000 nM.
`O=C1C=C2C=CC3CC2(O1)C1CCCCN31` (stereo not drawn) [SECURININE, 14-oxa-7-azatetracyclo[6.6.1.0^{1,11}.0^{2,7}]pentadeca-9,11-dien-13-one]: the activity at 10 µM was 1.4% in data set [1] (setting [3]) and 75% in data set [2] (10 uM, Table S2).
Regarding `COc1cc(NC(C)CCCN)c2ncccc2c1` (stereo not drawn) [Primaquine, N-(5-aminopentan-2-yl)-6-methoxyquinolin-8-amine; bis(phosphoric acid)], the activity at 10 µM in data set [1] (setting [3]) turned out to be 4.7%; in data set [2] (10 uM, Table S2) it was 91.1%. Moreover, the EC50 in data set [1] (Trypanosoma cruzi, TULAHUEN, Fibroblast, 120 h, intracellular amastigotes, 5 days, separate assays separated by semicolons) is 300 nM.
Regarding `O=C(O)CC[N+](=O)[O-]` [BOVINOCIDIN, 3-nitropropanoic acid], the activity at 10 µM in data set [1] (setting [3]) worked out at 14.1%; in data set [2], 88.6%.
For the compound `CC(=O)OC1(C(C)=O)CCC2C3C=C(Cl)C4=CC(=O)CCC4(C)C3CCC21C` (stereo not drawn) [CHLORMADINONE ACETATE, 14-acetyl-8-chloro-2,15-dimethyl-5-oxotetracyclo[8.7.0.0^{2,7}.0^{11,15}]heptadeca-6,8-dien-14-yl acetate], the activity at 10 µM in data set [1] (setting [3]) came to 9.7%; in data set [2] (10 uM, Table S2), 97.4%.
For `Clc1ccc2c(c1)C(N1CCNCC1)=Nc1ccccc1O2` [AMOXAPINE, 13-chloro-10-(piperazin-1-yl)-2-oxa-9-azatricyclo[9.4.0.0^{3,8}]pentadeca-1(15),3,5,7,9,11,13-heptaene] the same measures were 11.7% and 98%.
`CC12CCC3C(CCC4CC(O)CCC43C)C1CCC2=O` (stereo not drawn) [EPIANDROSTERONE, 5-hydroxy-2,15-dimethyltetracyclo[8.7.0.0^{2,7}.0^{11,15}]heptadecan-14-one]: the activity at 10 µM in data set [1] (Trypanosoma cruzi, TULAHUEN, Fibroblast, 120 h) turned out to be 18.8%; in data set [2], 100%.
As to `CC(=O)O[C@@H]1CC2C(C)(C)[C@H](O)CC[C@]2(C)C2CC[C@@]3(C)[C@H](c4ccoc4)OC(=O)C4OC43[C@@]21C` (stereo partly drawn) [alpha-DIHYDROGEDUNOL], the “T. cruzi % growth @ 10 uM (Amastigotes)” value in data set [1] (10 uM, Table S2) worked out at 3.8%. Further, the “Mammalian (3T3) cell % growth at 10 uM” value in data set [2] (10 uM, Table S2) came to 90.8%.
Regarding `CCN(CC)C(=S)SSC(=S)N(CC)CC` [N,N-diethyl[(diethylcarbamothioyl)disulfanyl]carbothioamide], the activity at 10 µM amounted to 0.3% in data set [1] (setting [5]) and 0.1% in data set [2] (10 uM, Table S1).
For `CC(=O)OC1C(=O)C2(C)C(O)CC3OCC3(OC(C)=O)C2C(OC(=O)c2ccccc2)C2(O)CC(OC(=O)C(O)C(NC(=O)c3ccccc3)c3ccccc3)C(C)=C1C2(C)C` (stereo not drawn) [PACLITAXEL, 4,12-bis(acetyloxy)-1,9-dihydroxy-15-{[2-hydroxy-3-phenyl-3-(phenylformamido)propanoyl]oxy}-10,14,17,17-tetramethyl-11-oxo-6-oxatetracyclo[11.3.1.0^{3,10}.0^{4,7}]heptadec-13-en-2-yl benzoate] the same measures were 0.2% and 58.1%.
As for `CC(C)C(C)/C=C/C(C)C1CCC2C3=CC=C4CC(O)CCC4(C)C3CCC21C` (stereo not drawn) [ERGOSTEROL, 14-[(3E)-5,6-dimethylhept-3-en-2-yl]-2,15-dimethyltetracyclo[8.7.0.0^{2,7}.0^{11,15}]heptadeca-7,9-dien-5-ol], the activity at 10 µM in data set [1] (setting [3]) amounted to 6%; in data set [2] (10 uM, Table S2), 99.6%.

For orientation: EC50 means the concentration at which the effect is half-maximal. For orientation: CC50 means the concentration at which the toxic effect on the cells reaches its halfway point.

Source of the values: PMC4102417 (PLoS Neglected Tropical Diseases, 2014).
